From patent US12269831B2, “Modulators of cystic fibrosis transmembrane conductance regulator” (Vertex Pharmaceuticals Incorporated, priority 2020, dated 2025)
Where two headings read alike, the source gives them in different places.

Settings: rcm bond, 14-membered ring, Zhan-1B

In the case of `CC1(C)CC=CC[C@](OCc2ccccc2)(C(F)(F)F)C2=NN=C(O2)c2nc(c(C(F)(F)F)cc2N(C(=O)OC(C)(C)C)C(=O)OC(C)(C)C)OC1` (mixture of isomers), the ring closure, isolated yield (from C=CCC(C)(C)COc1nc(-c2nnc([C@@](CC=C)(OCc3ccccc3)C(F)(F)F)o2)c(N(C(=O)OC(C)(C)C)C(=O)OC(C)(C)C)cc1C(F)(F)F, toluene, 2.2 mM, 110.0 °C, 4.0 h) is reported as 10%.
Work on `CC(C)(C)OC(=O)Nc1cc(C(F)(F)F)c2nc1-c1nnc(o1)[C@@](OCc1ccccc1)(C(F)(F)F)CC=CCCCO2` (mixture of isomers) yielded a ring closure, isolated yield (from C=CCCCOc1nc(-c2nnc([C@@](CC=C)(OCc3ccccc3)C(F)(F)F)o2)c(NC(=O)OC(C)(C)C)cc1C(F)(F)F, DCE, 6.7 mM, 60.0 °C, 4.0 h) of 65%.
Compound `C[C@@H]1CCC=CC(O)C(OCc2ccccc2)(C(F)(F)F)C2=NN=C(O2)c2nc(c(C(F)(F)F)cc2N)O1` (mixture of isomers) has a ring closure, isolated yield (from C=CCC[C@@H](C)Oc1nc(-c2nnc(C(OCc3ccccc3)(C(O)C=C)C(F)(F)F)o2)c(N)cc1C(F)(F)F, DCE, 3.1 mM, 70.0 °C, 3.5 h) of 76%.
